Among the data in publication PMC9960814, “The SlDOG1 Affect Biosynthesis of Steroidal Glycoalkaloids by Regulating GAME Expression in Tomato” (International Journal of Molecular Sciences, 2023) are Km values, retold here.

In data set [1] the test system is O=c1c(O)c(-c2ccc(O)c(O)c2)oc2cc(O)cc(O)c12. Put plainly: purified protein. Format: biochemical, Solanum lycopersicum. The settings on record: 15 mM UDP-galactose as fixed glycosyl donor.
A further data set deals with SlGAME5-like. The data set can be described thus: glycosyltransferase kinetics, […] substrate. The class given is biochemical, Solanum lycopersicum. The following applies: 15 mM UDP-galactose as fixed glycosyl donor.

SlGAME5 (Solanum lycopersicum): the Km in data set [1] is 17.50 µM.

Turning to `C[C@H]1CC[C@]2(NC1)O[C@H]1C[C@H]3[C@@H]4CC[C@H]5C[C@@H](O)CC[C@]5(C)[C@H]4CC[C@]3(C)[C@H]1[C@@H]2C` [tomatidine], in the data set on SlGAME5-like (methods print the varied substrate as tomatine), the Km was 40 µM.

On to `O=c1c(O)c(-c2ccc(O)c(O)c2)oc2cc(O)cc(O)c12` [quercetin], for which, in the data set with SlGAME5-like, the Km stood at 33 µM.
